Test system: strains of Enterobacteriaceae producing various carbapenemases (class A, D and B; 104 strains)
Assay: Antibiotics potentiation by Compound 27 (MIC; meropenem, doripenem, ertapenem, cefepime)
Format: cell-based
Conditions: + 27 = with Compound 27 at fixed 4 μg/ml

COc1ccc2c(c1C(=O)O)OB(O)C(Sc1nnc(N)s1)C2 (centres unmarked) [E + 27]
MIC (strain CF1012 Citrobacter freundii (KPC-2)): X (MIC of less than 1 μg/mL)
MIC (strain CF1021 Citrobacter freundii (CMY-type; VIM-1)): X (MIC of less than 1 μg/mL)
MIC (strain CF1022 Citrobacter freundii (SHV-12(2be), TEM-OSBL(2b); IMP-8)): X (MIC of less than 1 μg/mL)
MIC (strain CF1023 Citrobacter freundii (SHV-12(2be), TEM-OSBL(2b); CTX-M-3; CMY-34; NDM-1)): X (MIC of less than 1 μg/mL)
MIC (strain CL1080 Enterobacter cloacae (IMP-1)): Y (MIC of 1 μg/mL to 10 μg/mL)
MIC (strain EA1019 Enterobacter aerogenes (SHV-5, VIM-1)): X (MIC of less than 1 μg/mL)
MIC (strain EC1007 Escherichia coli (KPC-3)): X (MIC of less than 1 μg/mL)
MIC (strain EC1061 Escherichia coli (NDM-1, CMY-6)): X (MIC of less than 1 μg/mL)
MIC (strain EC1062 Escherichia coli (OXA-48, CTX-M-15)): X (MIC of less than 1 μg/mL)
MIC (strain EC1064 Escherichia coli (NDM-1, CMY-6, CTX-M-15)): Z (MIC of greater than 10 μg/mL)
MIC (strain EC1065 Escherichia coli (IMP-1)): X (MIC of less than 1 μg/mL)
MIC (strain EC1068 Escherichia coli (VIM-1)): X (MIC of less than 1 μg/mL)
MIC (strain EC1069 Escherichia coli (CTX-M-27; NDM-1)): X (MIC of less than 1 μg/mL)
MIC (strain EC1070 Escherichia coli (TEM-OSBL(2b); CMY-42; NDM-5)): X (MIC of less than 1 μg/mL)
MIC (strain EC1072 Escherichia coli (CTX-M-3; NDM-1)): X (MIC of less than 1 μg/mL)
MIC (strain ECL1004 Enterobacter cloacae (NMC-A)): X (MIC of less than 1 μg/mL)
MIC (strain ECL1026 Enterobacter cloacae (KPC-2, TEM-1)): X (MIC of less than 1 μg/mL)
MIC (strain ECL1036 Enterobacter cloacae (KPC-3, TEM-1)): X (MIC of less than 1 μg/mL)
MIC (strain ECL1045 Enterobacter cloacae (VIM-1)): Y (MIC of 1 μg/mL to 10 μg/mL)
MIC (strain ECL1055 Enterobacter cloacae (KPC-3, TEM)): X (MIC of less than 1 μg/mL)
MIC (strain ECL1057 Enterobacter cloacae (NDM-1, TEM-1, CTX-M-15)): Z (MIC of greater than 10 μg/mL)
MIC (strain ECL1058 Enterobacter cloacae (KPC-3, SHV-11, TEM-1)): Y (MIC of 1 μg/mL to 10 μg/mL)
MIC (strain ECL1059 Enterobacter cloacae (KPC-3, SHV-12, TEM-1)): X (MIC of less than 1 μg/mL)
MIC (strain ECL1061 Enterobacter cloacae (KPC-3, Hyper AmpC expression)): Y (MIC of 1 μg/mL to 10 μg/mL)
MIC (strain ECL1082 Enterobacter cloacae (VIM-1)): X (MIC of less than 1 μg/mL)
MIC (strain ECL1084 Enterobacter cloacae (CTX-M-15; ACT-16; NDM-1)): X (MIC of less than 1 μg/mL)
MIC (strain ECL1085 Enterobacter cloacae (SHV-31(2be), TEM-1(2b); CTX-M-15; NDM-1)): X (MIC of less than 1 μg/mL)
MIC (strain ECL1086 Enterobacter cloacae (VIM-31, OXA-48(c))): Y (MIC of 1 μg/mL to 10 μg/mL)
MIC (strain ECL1087 Enterobacter cloacae (VIM-1)): X (MIC of less than 1 μg/mL)
MIC (strain ECL1088 Enterobacter cloacae (TEM-1(2b); CTX-M-14; ACT-type; VIM-1)): X (MIC of less than 1 μg/mL)
MIC (strain ECL1089 Enterobacter cloacae (ACT-type; IMP-1)): Z (MIC of greater than 10 μg/mL)
MIC (strain ECL1090 Enterobacter cloacae (TEM-1(2b); CTX-M-22; ACT-type; IMP-8)): X (MIC of less than 1 μg/mL)
MIC (strain ECL1091 Enterobacter cloacae (VIM-1)): X (MIC of less than 1 μg/mL)
MIC (strain ECL1092 Enterobacter cloacae (TEM-OSBL(2b); ACT-32; VIM-1)): X (MIC of less than 1 μg/mL)
MIC (strain ECL1093 Enterobacter cloacae (TEM-OSBL(2b); ACT-32; VIM-1)): X (MIC of less than 1 μg/mL)
MIC (strain ECL1094 Enterobacter cloacae (VIM-1)): Y (MIC of 1 μg/mL to 10 μg/mL)
MIC (strain ECL1096 Enterobacter cloacae (CMY-4, VIM-4, OXA-48(c))): X (MIC of less than 1 μg/mL)
MIC (strain ECL1097 Enterobacter cloacae (SHV-31(2be), TEM-OSBL(2b); CTX-M-15; ACT-31; NDM-1)): X (MIC of less than 1 μg/mL)
MIC (strain ECL1098 Enterobacter cloacae (TEM-OSBL(2b); DHA-1; ACT-16; NDM-1)): X (MIC of less than 1 μg/mL)
MIC (strain KP1001 Klebsiella pneumoniae (KPC TEM SHV)): Z (MIC of greater than 10 μg/mL)
MIC (strain KP1002 Klebsiella pneumoniae (KPC TEM SHV)): X (MIC of less than 1 μg/mL)
MIC (strain KP1003 Klebsiella pneumoniae (KPC TEM SHV)): X (MIC of less than 1 μg/mL)
MIC (strain KP1004 Klebsiella pneumoniae (KPC-2, TEM-1, SHV-11)): X (MIC of less than 1 μg/mL)
MIC (strain KP1008 Klebsiella pneumoniae (KPC-2)): X (MIC of less than 1 μg/mL)
MIC (strain KP1014 Klebsiella pneumoniae (VIM-1, TEM, SHV)): X (MIC of less than 1 μg/mL)
MIC (strain KP1054 Klebsiella pneumoniae (VIM-1, SHV-11)): X (MIC of less than 1 μg/mL)
MIC (strain KP1059 Klebsiella pneumoniae (VIM-1, SHV-11)): Y (MIC of 1 μg/mL to 10 μg/mL)
MIC (strain KP1061 Klebsiella pneumoniae (KPC-3, SHV-11, TEM-1)): X (MIC of less than 1 μg/mL)
MIC (strain KP1064 Klebsiella pneumoniae (KPC-2, SHV-11, TEM-1)): Z (MIC of greater than 10 μg/mL)
MIC (strain KP1065 Klebsiella pneumoniae (VIM-1, SHV-11)): X (MIC of less than 1 μg/mL)
MIC (strain KP1070 Klebsiella pneumoniae (KPC-2, SHV-11, TEM-1)): X (MIC of less than 1 μg/mL)
MIC (strain KP1074 Klebsiella pneumoniae (KPC-3, SHV-11, TEM)): Z (MIC of greater than 10 μg/mL)
MIC (strain KP1081 Klebsiella pneumoniae (NDM-1, TEM-1, SHV-11, CMY-6, CTX-M-15)): Y (MIC of 1 μg/mL to 10 μg/mL)
MIC (strain KP1082 Klebsiella pneumoniae (KPC-2, SHV-1)): X (MIC of less than 1 μg/mL)
MIC (strain KP1083 Klebsiella pneumoniae (KPC-3, SHV-1, TEM-1)): X (MIC of less than 1 μg/mL)
MIC (strain KP1084 Klebsiella pneumoniae (KPC-3, SHV-11, TEM-1)): Z (MIC of greater than 10 μg/mL)
MIC (strain KP1086 Klebsiella pneumoniae (OXA-48, CTX-M-15, TEM, SHV)): Z (MIC of greater than 10 μg/mL)
MIC (strain KP1087 Klebsiella pneumoniae (KPC-2, CTX-M-15, SHV-11, TEM-1)): Y (MIC of 1 μg/mL to 10 μg/mL)
MIC (strain KP1088 Klebsiella pneumoniae (KPC-3, SHV-11, TEM-1)): X (MIC of less than 1 μg/mL)
MIC (strain KP1089 Klebsiella pneumonias (OXA-181, CTX-M-15, TEM, SHV)): X (MIC of less than 1 μg/mL)
MIC (strain KP1095 Klebsiella pneumoniae (KPC-2 TEM-1 SHV-1)): X (MIC of less than 1 μg/mL)
MIC (strain KP1096 Klebsiella pneumoniae (KPC-2 TEM-181 SHV-11)): X (MIC of less than 1 μg/mL)
MIC (strain KP1097 Klebsiella pneumonias (IMP-1)): X (MIC of less than 1 μg/mL)
MIC (strain KP1098 Klebsiella pneumoniae (IMP-26)): Y (MIC of 1 μg/mL to 10 μg/mL)
MIC (strain KP1104 Klebsiella pneumoniae (KPC TEM)): X (MIC of less than 1 μg/mL)
MIC (strain KP1105 Klebsiella pneumoniae (KPC TEM SHV)): X (MIC of less than 1 μg/mL)
MIC (strain KP1159 Klebsiella pneumoniae (SHV-1(2b); CTX-M-15; IMP-4)): Y (MIC of 1 μg/mL to 10 μg/mL)
MIC (strain KP1160 Klebsiella pneumoniae (SHV-28(2be); CTX-M-15; IMP-26)): Y (MIC of 1 μg/mL to 10 μg/mL)
MIC (strain KP1161 Klebsiella pneumoniae (NDM-1)): X (MIC of less than 1 μg/mL)
MIC (strain KP1164 Klebsiella pneumoniae (SHV-12(2be); VIM-1)): X (MIC of less than 1 μg/mL)
MIC (strain KP1165 Klebsiella pneumoniae (SHV-11(2b); CTX-M-15; VIM-27)): Z (MIC of greater than 10 μg/mL)
MIC (strain KP1166 Klebsiella pneumoniae (SHV-5(2be); VIM-26)): Y (MIC of 1 μg/mL to 10 μg/mL)
MIC (strain KP1167 Klebsiella pneumoniae (SHV-12(2be); VIM-1)): X (MIC of less than 1 μg/mL)
MIC (strain KP1169 Klebsiella pneumoniae (SHV-11(2b); VIM-1)): X (MIC of less than 1 μg/mL)
MIC (strain KP1170 Klebsiella pneumoniae (SHV-11(2b); CTX-M-15; NDM-1)): X (MIC of less than 1 μg/mL)
MIC (strain KP1172 Klebsiella pneumoniae (SHV-31(2be); DHA-1; VIM-1)): X (MIC of less than 1 μg/mL)
MIC (strain KP1173 Klebsiella pneumoniae (TEM-33(2br); CTX-M-15; IMP-1)): X (MIC of less than 1 μg/mL)
MIC (strain KP1174 Klebsiella pneumoniae (CTX-M-14; IMP-1)): X (MIC of less than 1 μg/mL)
MIC (strain KP1175 Klebsiella pneumoniae (SHV-OSBL(2b); VIM-1)): X (MIC of less than 1 μg/mL)
MIC (strain KP1177 Klebsiella pneumoniae (SHV-OSBL(2b), TEM-OSBL(2b); CTX-M-15; NDM-1)): X (MIC of less than 1 μg/mL)
MIC (strain KP1178 Klebsiella pneumoniae (SHV-OSBL(2b;) TEM-OSBL(2b); CTX-M-15; NDM-1)): X (MIC of less than 1 μg/mL)
MIC (strain KP1179 Klebsiella pneumoniae (SHV-12(2be), TEM-OSBL(2b); CTX-M-15; NDM-7)): X (MIC of less than 1 μg/mL)
MIC (strain KP1180 Klebsiella pneumoniae (SHV-OSBL(2b), TEM-OSBL(2b); CTX-M-15; DHA-1; IMP-26)): X (MIC of less than 1 μg/mL)
MIC (strain KP1181 Klebsiella pneumoniae (SHV-OSBL(2b); CTX-M-15; IMP-26)): X (MIC of less than 1 μg/mL)
MIC (strain KP1183 Klebsiella pneumoniae (SHV-OSBL(2b), TEM-OSBL(2b); CTX-M-15; NDM-1)): X (MIC of less than 1 μg/mL)
MIC (strain KP1184 Klebsiella pneumoniae (SHV-OSBL(2b); IMP-1)): X (MIC of less than 1 μg/mL)
MIC (strain KP1185 Klebsiella pneumoniae (SHV-OSBL(2b), TEM-OSBL(2b); IMP-4)): Y (MIC of 1 μg/mL to 10 μg/mL)
MIC (strain KP1186 Klebsiella pneumoniae (CTX-M-15; NDM-1)): X (MIC of less than 1 μg/mL)
MIC (strain KP1187 Klebsiella pneumoniae (SHV-55(2be), TEM-OSBL(2b); CTX-M-15; NDM-1)): X (MIC of less than 1 μg/mL)
MIC (strain KP1188 Klebsiella pneumoniae (SHV-OSBL(2b); CTX-M-15; NDM-1)): Y (MIC of 1 μg/mL to 10 μg/mL)
MIC (strain KP1189 Klebsiella pneumoniae (TEM-OSBL(2b); CTX-M-15; CTX-M-27; NDM-1)): X (MIC of less than 1 μg/mL)
MIC (strain KPM1123 Klebsiella pneumoniae (KPC-2 TEM SHV)): X (MIC of less than 1 μg/mL)
MIC (strain KPM1202 Klebsiella pneumoniae (KPC SHV TEM)): X (MIC of less than 1 μg/mL)
MIC (strain KPM1203 Klebsiella pneumoniae (KPC SHV TEM)): X (MIC of less than 1 μg/mL)
MIC (strain KPM1344 Klebsiella pneumoniae (VIM-1)): X (MIC of less than 1 μg/mL)
MIC (strain KPM1345 Klebsiella pneumoniae (VIM-1 SHV)): X (MIC of less than 1 μg/mL)
MIC (strain KPM1347 Klebsiella pneumoniae (NDM-1 SHV CTX-M-15)): X (MIC of less than 1 μg/mL)
MIC (strain KX1017 Klebsiella oxytoca (KPC-2, OXA-2, SHV-30)): X (MIC of less than 1 μg/mL)
MIC (strain KX1018 Klebsiella oxytoca (KPC-2, SHV-40, OXY-1)): X (MIC of less than 1 μg/mL)
MIC (strain KX1019 Klebsiella oxytoca (KPC-2, OXA-2)): X (MIC of less than 1 μg/mL)
MIC (strain PM1024 Proteus mirabilis (TEM-1(2b); CMY-16; VIM-1)): X (MIC of less than 1 μg/mL)
MIC (strain PM1026 Proteus mirabilis (DHA-1; IMP-26)): X (MIC of less than 1 μg/mL)
MIC (strain PM1027 Proteus mirabilis (VIM-5)): X (MIC of less than 1 μg/mL)
MIC (strain SM1023 Serratia marcescens (VIM-4)): Y (MIC of 1 μg/mL to 10 μg/mL)
